According to patent US10471046B2, “Method for treating, preventing, or reducing the risk of skin infection” (Melinta Subsidiary Corp., priority 2014, dated 2019):
In brackets after ≈: the same amount, converted by molar mass.

The molecules below were run on S. aureus (assay: Minimum inhibitory concentrations (MICs) for S. aureus of exemplary compounds (Table 2)). Settings: Staphylococcus aureus, minimum inhibitory concentrations for S. aureus; read-out: MICs.
Assay type: cell-based
Outline: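 Growth of S. aureus in media with or without compound, by broth microdilution in microtiter trays following NCCLS M7-A5 guidelines. Values are MICs in μg/mL.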

Row | Compound | MIC [µg/mL]
1 | O=C(CCl)NC[C@H]1CN(c2ccc(-c3ccc(Cn4cnnn4)cc3)c(F)c2)C(=O)O1 [Compound 1033, 2-Chloro-N-[3-(2-fluoro-4′-tetrazol-1-ylmethyl-biphenyl-4-yl)-2-oxo-oxazolidin-5-(S)-ylmethyl]-acetamide] | 0.25 (≈ 0.562 µM)
2 | CC(=O)NC[C@H]1CN(c2ccc(-c3ccc(Cn4ccc(C=O)c4)cc3)c(F)c2)C(=O)O1 [Compound 1055, N-{3-[2-Fluoro-4′-(3-formyl-pyrrol-1-ylmethyl)-biphenyl-4-yl]-2-oxo-oxazolidin-5-(S)-ylmethyl}-acetamide] | 0.25 (≈ 0.574 µM)
3 | CC(=O)NC[C@H]1CN(c2ccc(-c3ccc(CSc4cnn[nH]4)cc3)c(F)c2)C(=O)O1 [Compound 2016, N-{3-[2-Fluoro-4′-(3H-[1,2,3]triazol-4-ylsulfanylmethyl)-biphenyl-4-yl]-2-oxo-oxazolidin-5-(S)-ylmethyl}-acetamide] | 0.25 (≈ 0.566 µM)
4 | CC(=O)NC[C@H]1CN(c2ccc(-c3ccc(CSc4nnnn4CCN(C)C)cc3)c(F)c2)C(=O)O1 [Compound 2027, N-(3-{4′-[1-(2-Dimethylamino-ethyl)-1H-tetrazol-5-ylsulfanylmethyl]-2-fluoro-biphenyl-4-yl}-2-oxo-oxazolidin-5-(S)-ylmethyl)-acetamide] | 1 (≈ 1.95 µM)
5 | CC(=O)NC[C@H]1CN(c2ccc(-c3ccc(CSc4nnnn4C)cc3)c(F)c2)C(=O)O1 [Compound 2015, N-{3-[2-Fluoro-4′-(1-methyl-1H-tetrazol-5-ylsulfanylmethyl)-biphenyl-4-yl]-2-oxo-oxazolidin-5-(S)-ylmethyl}-acetamide] | 0.25 (≈ 0.548 µM)
6 | CC(=O)NC[C@H]1CN(c2ccc(-c3ccc(CN4CCN(C=O)CC4)cc3)c(F)c2)C(=O)O1 [Compound 1006, N-{3-[2-Fluoro-4′-(4-formyl-piperazin-1-ylmethyl)-biphenyl-4-yl]-2-oxo-oxazolidin-5-(S)-ylmethyl}-acetamide] | 0.5 (≈ 1.1 µM)
7 | CC(=O)NC[C@H]1CN(c2cc(F)c(-c3ccc(Cn4cnnn4)cc3)c(F)c2)C(=O)O1 [Compound 1048, N-[3-(2,6-Difluoro-4′-tetrazol-1-ylmethyl-biphenyl-4-yl)-2-oxo-oxazolidin-5-(S)-ylmethyl]-acetamide] | 1 (≈ 2.33 µM)
8 | COc1cc(CNCc2ccncc2)ccc1-c1ccc(N2C[C@H](CNC(C)=O)OC2=O)cc1F [Compound 4027, N-[3-(2-Fluoro-2′-methoxy-4′-{[(pyridin-4-ylmethyl)-amino]-methyl}-biphenyl-4-yl)-2-oxo-oxazolidin-5-(S)-ylmethyl]-acetamide] | 8 (≈ 16.7 µM)
9 | CC(=O)NC[C@H]1CN(c2ccc(-c3ccc(CN4CCOC4=O)cc3)c(F)c2)C(=O)O1 [Compound 1101, N-{3-[2-Fluoro-4′-(2-oxo-oxazolidin-3-ylmethyl)-biphenyl-4-yl]-2-oxo-oxazolidin-5-(S)-ylmethyl}-acetamide] | 0.25 (≈ 0.585 µM)
10 | CC(=O)NC[C@H]1CN(c2ccc(-c3ccc(Cn4cncn4)cc3)c(F)c2)C(=O)O1 [Compound 1037, N-[3-(2-Fluoro-4′-[1,2,4]triazol-1-ylmethyl-biphenyl-4-yl)-2-oxo-oxazolidin-5-(S)-ylmethyl]-acetamide] | 0.5 (≈ 1.22 µM)
11 | CC(=O)NC[C@H]1CN(c2ccc(-c3ccc(C[S+]([O-])c4nccs4)cc3)c(F)c2)C(=O)O1 (stereo partly drawn) [Compound 2036, N-{3-[2-Fluoro-4′-(thiazole-2-sulfinylmethyl)-biphenyl-4-yl]-2-oxo-oxazolidin-5-(S)-ylmethyl}-acetamide] | 1 (≈ 2.11 µM)
12 | CCOC(=O)c1cnn(Cc2ccc(-c3ccc(N4C[C@H](CNC(C)=O)OC4=O)cc3F)cc2)c1 [Compound 1049, 1-{4′-[5-(S)-(Acetylamino-methyl)-2-oxo-oxazolidin-3-yl]-2′-fluoro-biphenyl-4-ylmethyl}-1H-pyrazole-4-carboxylic acid ethyl ester] | 0.5 (≈ 1.04 µM)
13 | COc1cc(CNCc2ccoc2)ccc1-c1ccc(N2C[C@H](CNC(C)=O)OC2=O)cc1F [Compound 4028, N-[3-(2-Fluoro-4′-{[(furan-3-ylmethyl)-amino]-methyl}-2′-methoxy-biphenyl-4-yl)-2-oxo-oxazolidin-5-(S)-ylmethyl]-acetamide] | 8 (≈ 17.1 µM)
14 | CC(=O)NC[C@H]1CN(c2ccc(-c3ccc(CN4CCN(c5ncc(C(F)(F)F)cc5Cl)CC4)cc3)c(F)c2)C(=O)O1 [Compound 1038, N-(3-{4′-[4-(3-Chloro-5-trifluoromethyl-pyridin-2-yl)-piperazin-1-ylmethyl]-2-fluoro-biphenyl-4-yl}-2-oxo-oxazolidin-5-(S)-ylmethyl)-acetamide] | 128 (≈ 211 µM)
15 | CC(=O)NC[C@H]1CN(c2ccc(-c3ccc(Cn4nnc(N)n4)cc3)c(F)c2)C(=O)O1 [Compound 1024, N-{3-[4′-(5-Amino-tetrazol-2-ylmethyl)-2-fluoro-biphenyl-4-yl]-2-oxo-oxazolidin-5-(S)-ylmethyl}-acetamide] | 0.25 (≈ 0.588 µM)
16 | CC(=O)NC[C@H]1CN(c2ccc(-c3ccc(/C=N/N4CCOCC4)cc3)c(F)c2)C(=O)O1 [Compound 2056, N-{3-[2-Fluoro-4′-(morpholin-4-yliminomethyl)-biphenyl-4-yl]-2-oxo-oxazolidin-5-(S)-ylmethyl}-acetamide] | 0.25 (≈ 0.568 µM)
17 | CC(=O)NC[C@H]1CN(c2ccc(-c3ccc(Cn4cnc5c(N)ncnc54)cc3)c(F)c2)C(=O)O1 [Compound 1110, N-{3-[4′-(6-Amino-purin-9-ylmethyl)-2-fluoro-biphenyl-4-yl]-2-oxo-oxazolidin-5-(S)-ylmethyl}-acetamide] | 1 (≈ 2.1 µM)

Next, values leading:

Row | MIC [µg/mL] | Compound
18 | 0.5 (≈ 1.07 µM) | CC(=O)NC[C@H]1CN(c2ccc(-c3ccc(CSCc4ccccn4)cc3)c(F)c2)C(=O)O1 [Compound 4216, N-{3-[2-Fluoro-4′-(pyridin-2-ylmethylsulfanylmethyl)-biphenyl-4-yl]-2-oxo-oxazolidin-5-(S)-ylmethyl}-acetamide]
19 | 1 (≈ 2.02 µM) | CC(=O)NC[C@H]1CN(c2ccc(-c3ccc(CNCCSc4ncccn4)cc3)c(F)c2)C(=O)O1 [Compound 5009, N-[3-(2-Fluoro-4′-{[2-(pyrimidin-2-ylsulfanyl)-ethylamino]-methyl}-biphenyl-4-yl)-2-oxo-oxazolidin-5-(S)-ylmethyl]-acetamide]
20 | 2 (≈ 4.17 µM) | CC(=O)NC[C@H]1CN(c2ccc(-c3ccc(CNCCCc4cn[nH]c4C)cc3)c(F)c2)C(=O)O1 [Compound 4148, N-[3-(2-Fluoro-4′-{[3-(5-methyl-1H-pyrazol-4-yl)-propylamino]-methyl}-biphenyl-4-yl)-2-oxo-oxazolidin-5-(S)-ylmethyl]-acetamide]
21 | 16 (≈ 29.6 µM) | CC(=O)NC[C@H]1CN(c2ccc(-c3ccc(CNC(=O)C4CN(C(=O)OC(C)(C)C)C4)cc3)c(F)c2)C(=O)O1 [Compound 4290, 3-({4′-[5-(S)-(Acetylamino-methyl)-2-oxo-oxazolidin-3-yl]-2′-fluoro-biphenyl-4-ylmethyl}-carbamoyl)-azetidine-1-carboxylic acid tert-butyl ester]
22 | 8 (≈ 14.4 µM) | CC(=O)NC[C@H]1CN(c2ccc(-c3ccc(CNCC4CCN(C(=O)OC(C)(C)C)CC4)cc3)c(F)c2)C(=O)O1 [Compound 4298, 4-[({4′-[5-(S)-(Acetylamino-methyl)-2-oxo-oxazolidin-3-yl]-2′-fluoro-biphenyl-4-ylmethyl}-amino)-methyl]-piperidine-1-carboxylic acid tert-butylester]
23 | 2 (≈ 4.32 µM) | CC(=O)NC[C@H]1CN(c2ccc(-c3ccc(C(=O)NCc4ccncc4)cc3)c(F)c2)C(=O)O1 [Compound 4102, 4′-[5-(S)-(Acetylamino-methyl)-2-oxo-oxazolidin-3-yl]-2′-fluoro-biphenyl-4-carboxylic acid (pyridin-4-ylmethyl)-amide]
24 | 8 (≈ 16.7 µM) | CC(=O)NC[C@H]1CN(c2ccc(-c3ccc(CNCc4c(C)nn(C)c4C)cc3)c(F)c2)C(=O)O1 [Compound 4163, N-[3-(2-Fluoro-4′-{[(1,3,5-trimethyl-1H-pyrazol-4-ylmethyl)-amino]-methyl}-biphenyl-4-yl)-2-oxo-oxazolidin-5-(S)-ylmethyl]-acetamide]
25 | 2 (≈ 4.58 µM) | CC(=O)NC[C@H]1CN(c2ccc(-c3ccc(CNCc4ccc[nH]4)cc3)c(F)c2)C(=O)O1 [Compound 4048, N-[3-(2-Fluoro-4′-{[(1H-pyrrol-2-ylmethyl)-amino]-methyl}-biphenyl-4-yl)-2-oxo-oxazolidin-5-(S)-ylmethyl]-acetamide]
26 | 128 (≈ 277 µM) | CC(=O)NC[C@H]1CN(c2ccc(-c3ccc(C(=N)NCc4ccncc4)cc3)c(F)c2)C(=O)O1 [Compound 4080, N-{3-[2-Fluoro-4′-(N-pyridin-4-ylmethyl-carbamimidoyl)-biphenyl-4-yl]-2-oxo-oxamlidin-5-(S)-ylmethyl}-acetamide]
27 | 4 (≈ 8.57 µM) | CC(=O)NC[C@H]1CN(c2ccc(-c3ccc(CNCCCc4cnn[nH]4)cc3)c(F)c2)C(=O)O1 [Compound 4258, N-[3-(2-Fluoro-4′-{[3-(3H-[1,2,3]triazol-4-yl)-propylamino]-methyl}-biphenyl-4-yl)-2-oxo-oxazolidin-5-(S)-ylmethyl]-acetamide]
28 | 2 (≈ 3.78 µM) | CC(=O)NC[C@H]1CN(c2ccc(-c3ccc([C@H](CO)NCc4ccnc5ccccc45)cc3)c(F)c2)C(=O)O1 [Compound 4031, N-[3-(2-Fluoro-4′-{2-hydroxy-1-(R)-[(quinolin-4-ylmethyl)-amino]-ethyl}-biphenyl-4-yl)-2-oxo-oxazolidin-5-(S)-ylmethyl]-acetamide]
29 | 4 (≈ 8.02 µM) | CC(=O)NC[C@H]1CN(c2ccc(-c3ccc(CNCC(F)(F)c4ccccn4)cc3)c(F)c2)C(=O)O1 [Compound 4177, N-(3-{4′-[(2,2-Difluoro-2-pyridin-2-yl-ethylamino)-methyl]-2-fluoro-biphenyl-4-yl}-2-oxo-oxazolidin-5-(S)-ylmethyl)-acetamide]
30 | 2 (≈ 4.31 µM) | CC(=O)NC[C@H]1CN(c2ccc(-c3ccc(CNOCc4ccccc4)cc3)c(F)c2)C(=O)O1 [Compound 4263, N-{3-[4′-(Benzyloxyamino-methyl)-2-fluoro-biphenyl-4-yl]-2-oxo-oxazolidin-5-(S)-ylmethyl}-acetamide]
31 | 4 (≈ 9.1 µM) | CC(=O)NC[C@H]1CN(c2ccc(-c3ccc(CNCc4cnn[nH]4)nc3)c(F)c2)C(=O)O1 [Compound 4277, N-{3-[3-Fluoro-4-(6-{[(3H-[1,2,3]triazol-4-ylmethyl)-amino]-methyl}-pyridin-3-yl)-phenyl]-2-oxo-oxazolidin-5-(S)-ylmethyl}-acetamide]
